Data on 24 molecules can be found in patent publication US20110044938A1 (NYCOMED GMBH, priority 2006, published 2011).

For test [1], the system named is RKO (RKOp27) human colon adenocarcinoma cells. Kind of test: Alamar Blue cell viability assay, anti-proliferative/cytotoxic activity on proliferating RKO subclones. Conditions: RKOp27, 72 h, RKO p27 uninduced (proliferating) cells, value = class bound given in Table A, read-out: −logIC50 RKO p27 uninduced (proliferating) (converted). It counts as cell-based. The essentials: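 RKOp27 subclones (5000 cells/well) were exposed 24 h after seeding to semi-log compound dilutions in DMEM with 10% FCS, in quadruplicate, for 72 h at 37 °C. Viability was read by Alamar Blue fluorescence (544/590 nm) relative to untreated cells (1% DMSO medium). IC50 came from concentration-effect curves and is reported as −log IC50 [mol/l].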
A general note: Alamar Blue is a resazurin reagent that responds to reducing activity.

Test [2] deals with subclones of RKO colon adenocarcinoma cells (RKOp27 or RKOp21) arrested by Ponasterone A. Kind of test: Alamar Blue cell viability assay, cell cycle specific mode of action: cells arrested by ectopic p27Kip1 induced by Ponasterone A versus proliferating cells. Type of test: cell-based. Conditions: Homo sapiens, RKO p27 induced (arrested) cells, 10 μM Ponasterone A, 72 hours, value = class bound given in Table A, read-out: −logIC50 RKO p27 induced (arrested) (converted). The essentials: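 RKOp27 or RKOp21 cells, 15000/well in DMEM/10% FCS, either arrested by p27Kip1 induced with 10 μM Ponasterone A or proliferating without inducer; compound added after 24 h, 72 h at 37° C. Alamar Blue fluorescence (544/590 nm), viability as % of untreated cells; −log IC50 reported.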

Some results are limits rather than exact numbers.

As for `CCOc1ccccc1CCC(=O)Nc1sc2c(c1C#N)CCC(OC(=O)NCc1nccn1C)C2` (stereo not drawn) [Example 173, (1-Methyl-1H-imidazol-2-ylmethyl)-carbamic acid 3-cyano-2-[3-(2-ethoxy-phenyl)-propanoylamino]-4,5,6,7-tetrahydro-benzo[b]thiophen-6-yl ester], the IC50 was not above 501 nM in test [1] and not below 10000 nM in test [2].

With `CCOc1ccccc1CCC(=O)Nc1sc2c(c1C#N)CCC(OC(=O)NCc1ccccn1)C2` (stereo not drawn) [Example 174, Pyridin-2-ylmethyl-carbamic acid 3-cyano-2-[3-(2-ethoxy-phenyl)-propanoylamino]-4,5,6,7-tetrahydro-benzo[b]thiophen-6-yl ester], the IC50 in test [1] was not above 501 nM; in test [2], not below 100000 nM.

Turning to `CCOc1ccccc1CCC(=O)Nc1sc2c(c1C#N)CCC(COC(=O)NCc1cccnc1)C2` (stereo not drawn) [Example 175, Pyridin-3-ylmethyl-carbamic acid 3-cyano-2-[3-(2-ethoxy-phenyl)-propanoylamino]-4,5,6,7-tetrahydro-benzo[b]thiophen-6-ylmethyl ester], the results for the IC50 in test [1] and in test [2] were not above 501 nM and not below 100000 nM, respectively.

Consider `CCOc1ccccc1CCC(=O)Nc1sc2c(c1C#N)CCC(COC(=O)NCCc1cccnc1)C2` (stereo not drawn) [Example 176, (2-Pyridin-3-yl-ethyl)-carbamic acid 3-cyano-2-[3-(2-ethoxy-phenyl)-propanoylamino]-4,5,6,7-tetrahydro-benzo[b]thiophen-6-ylmethyl ester], for which the IC50 in test [1] was not above 501 nM; in test [2], not below 100000 nM.

For `CCOc1ccccc1CCC(=O)Nc1sc2c(c1C#N)CCC(COC(=O)NCc1cncn1C)C2` (stereo not drawn) [Example 177, (3-Methyl-3H-imidazol-4-ylmethyl)-carbamic acid 3-cyano-2-[3-(2-ethoxy-phenyl)-propanoylamino]-4,5,6,7-tetrahydro-benzo[b]thiophen-6-ylmethyl ester], the IC50 in test [1] is not above 501 nM; in test [2] it was not below 50100 nM.

As to `CCOc1ccccc1CCC(=O)Nc1sc2c(c1C#N)CCC(COC(=O)NCc1cn(C)cn1)C2` (stereo not drawn) [Example 178, (1-Methyl-1H-imidazol-4-ylmethyl)-carbamic acid 3-cyano-2-[3-(2-ethoxy-phenyl)-propanoylamino]-4,5,6,7-tetrahydro-benzo[b]thiophen-6-ylmethyl ester], the IC50 in test [1] is not above 501 nM; in test [2], not below 50100 nM.

On to `CCOc1ccccc1CCC(=O)Nc1sc2c(c1C#N)CCC(COC(=O)NCc1ncc[nH]1)C2` (stereo not drawn) [Example 179, (1H-Imidazol-2-ylmethyl)-carbamic acid 3-cyano-2-[3-(2-ethoxy-phenyl)-propanoylamino]-4,5,6,7-tetrahydro-benzo[b]thiophen-6-ylmethyl ester], for which the IC50 is not above 501 nM in test [1] and not below 10000 nM in test [2].

As for `CCOc1ccccc1CCC(=O)Nc1sc2c(c1C#N)CCC(COC(=O)NCc1ccnn1C)C2` (stereo not drawn) [Example 180, (2-Methyl-2H-pyrazol-3-ylmethyl)-carbamic acid 3-cyano-2-[3-(2-ethoxy-phenyl)-propanoylamino]-4,5,6,7-tetrahydro-benzo[b]thiophen-6-ylmethyl ester], the IC50 was not above 501 nM in test [1] and not below 100000 nM in test [2].

On to `CCOc1ccccc1CCC(=O)Nc1sc2c(c1C#N)CCC(COC(=O)NCc1ccncc1)C2` (stereo not drawn) [Example 181, Pyridin-4-ylmethyl-carbamic acid 3-cyano-2-[3-(2-ethoxy-phenyl)-propanoylamino]-4,5,6,7-tetrahydro-benzo[b]thiophen-6-ylmethyl ester], for which the IC50 in test [1] was not above 501 nM; in test [2], not below 100000 nM.

Take `CCOc1ccccc1CCC(=O)Nc1sc2c(c1C#N)CCC(COC(=O)NCc1cc(C)on1)C2` (stereo not drawn) [Example 182, (5-Methyl-isoxazol-3-ylmethyl)-carbamic acid 3-cyano-2-[3-(2-ethoxy-phenyl)-propanoylamino]-4,5,6,7-tetrahydro-benzo[b]thiophen-6-ylmethyl ester]: the figures for the IC50 in test [1] and in test [2] were not above 501 nM and not below 100000 nM, respectively.

As for `CCOc1ccccc1CCC(=O)Nc1sc2c(c1C#N)CCC(COC(=O)NCc1nccn1C)C2` (stereo not drawn) [Example 183, (1-Methyl-1H-imidazol-2-ylmethyl)-carbamic acid 3-cyano-2-[3-(2-ethoxy-phenyl)-propanoylamino]-4,5,6,7-tetrahydro-benzo[b]thiophen-6-ylmethyl ester], the IC50 in test [1] was not above 501 nM; in test [2], not below 50100 nM.

Take `CCOc1ccccc1CCC(=O)Nc1sc2c(c1C#N)CCC(COC(=O)NCc1ccccn1)C2` (stereo not drawn) [Example 184, Pyridin-2-ylmethyl-carbamic acid 3-cyano-2-[3-(2-ethoxy-phenyl)-propanoylamino]-4,5,6,7-tetrahydro-benzo[b]thiophen-6-ylmethyl ester]: the IC50 in test [1] is not above 501 nM; in test [2] it was not below 100000 nM.

Regarding `CCOc1ccccc1CCC(=O)Nc1sc2c(c1C#N)CCC(OC(=O)NCc1ncc[nH]1)C2` (stereo not drawn) [Example 185, (1H-Imidazol-2-ylmethyl)-carbamic acid 3-cyano-2-[3-(2-ethoxy-phenyl)-propanoylamino]-4,5,6,7-tetrahydro-benzo[b]thiophen-6-yl ester], the IC50 in test [1] is not above 501 nM; in test [2], not below 10000 nM.

In the case of `COC(=O)OC1CCc2c(sc(NC(=O)CCc3cccnc3)c2C#N)C1` (stereo not drawn) [Example 186, Carbonic acid 3-cyano-2-(3-pyridin-3-yl-propanoylamino)-4,5,6,7-tetrahydro-benzo[b]thiophen-6-yl ester methyl ester], the IC50 in test [1] was 501 to 2000 nM; in test [2] it was not below 100000 nM.

In the case of `CCOc1ccccc1CCC(=O)Nc1sc2c(c1C#N)CCC(COC(=O)NCC1CCOCC1)C2` (stereo not drawn) [Example 194, (Tetrahydro-pyran-4-ylmethyl)-carbamic acid 3-cyano-2-[3-(2-ethoxy-phenyl)-propanoylamino]-4,5,6,7-tetrahydro-benzo[b]thiophen-6-ylmethyl ester], the IC50 in test [1] is not above 501 nM; in test [2], not below 10000 nM.

Turning to `CCOc1ccccc1CCC(=O)Nc1sc2c(c1C#N)CCC(COC(=O)NCc1conc1C)C2` (stereo not drawn) [Example 198, (3-Methyl-isoxazol-4-ylmethyl)-carbamic acid 3-cyano-2-[3-(2-ethoxy-phenyl)-propanoylamino]-4,5,6,7-tetrahydro-benzo[b]thiophen-6-ylmethyl ester], the IC50 in test [1] was not above 501 nM; in test [2], not below 100000 nM.

For `CCOc1ccccc1CCC(=O)Nc1sc2c(c1C#N)CCC(COC(=O)NCc1nccs1)C2` (stereo not drawn) [Example 199, Thiazol-2-ylmethyl-carbamic acid 3-cyano-2-[3-(2-ethoxy-phenyl)-propanoylamino]-4,5,6,7-tetrahydro-benzo[b]thiophen-6-ylmethyl ester], the IC50 was not above 501 nM in test [1] and not below 100000 nM in test [2].

`CCOc1ccccc1CCC(=O)Nc1sc2c(c1C#N)CCC(COC(=O)NCc1nnc(C)o1)C2` (stereo not drawn) [Example 200, (5-Methyl-[1,3,4]oxadiazol-2-ylmethyl)-carbamic acid 3-cyano-2-[3-(2-ethoxy-phenyl)-propanoylamino]-4,5,6,7-tetrahydro-benzo[b]thiophen-6-ylmethyl ester]: the IC50 was 501 to 2000 nM in test [1] and not below 100000 nM in test [2].

Consider `CCOc1ccccc1CCC(=O)Nc1sc2c(c1C#N)CCC(COC(=O)N1CCCC1)C2` (stereo not drawn) [Example 201, Pyrrolidine-1-carboxylic acid 3-cyano-2-[3-(2-ethoxy-phenyl)-propanoylamino]-4,5,6,7-tetrahydro-benzo[b]thiophen-6-ylmethyl ester], for which the IC50 was not above 501 nM in test [1] and not below 100000 nM in test [2].

As for `CCOc1ccccc1CCC(=O)Nc1sc2c(c1C#N)CCC(COC(=O)OCc1ccsn1)C2` (stereo not drawn) [Example 202, Carbonic acid 3-cyano-2-[3-(2-ethoxy-phenyl)-propanoylamino]-4,5,6,7-tetrahydro-benzo[b]thiophen-6-ylmethyl ester isothiazol-3-ylmethyl ester], the IC50 in test [1] was not above 501 nM; in test [2], not below 100000 nM.

Regarding `CCOc1ccccc1CCC(=O)Nc1sc2c(c1C#N)CCC(COC(=O)OCc1nccs1)C2` (stereo not drawn) [Example 203, Carbonic acid 3-cyano-2-[3-(2-ethoxy-phenyl)-propanoylamino]-4,5,6,7-tetrahydro-benzo[b]thiophen-6-ylmethyl ester thiazol-2-ylmethyl ester], the figures for the IC50 in test [1] and in test [2] were not above 501 nM and not below 100000 nM, respectively.

For the molecule `CCOc1ccccc1CCC(=O)Nc1sc2c(c1C#N)CCC(OC(=O)NCc1cnoc1C)C2` (stereo not drawn) [Example 204, (5-Methyl-isoxazol-4-ylmethyl)-carbamic acid 3-cyano-2-[3-(2-ethoxy-phenyl)-propanoylamino]-4,5,6,7-tetrahydro-benzo[b]thiophen-6-yl ester], the results for the IC50 in test [1] and in test [2] were not above 501 nM and not below 100000 nM, respectively.

As to `CCOc1ccccc1CCC(=O)Nc1sc2c(c1C#N)CCC(OC(=O)NCc1conc1C)C2` (stereo not drawn) [Example 205, (3-Methyl-isoxazol-4-ylmethyl)-carbamic acid 3-cyano-2-[3-(2-ethoxy-phenyl)-propanoylamino]-4,5,6,7-tetrahydro-benzo[b]thiophen-6-yl ester], the IC50 in test [1] is not above 501 nM; in test [2], not below 100000 nM.

For the molecule `CCOc1ccccc1CCC(=O)Nc1sc2c(c1C#N)CCC(OC(=O)NCc1nccs1)C2` (stereo not drawn) [Example 206, Thiazol-2-ylmethyl-carbamic acid 3-cyano-2-[3-(2-ethoxy-phenyl)-propanoylamino]-4,5,6,7-tetrahydro-benzo[b]thiophen-6-yl ester], the IC50 in test [1] is not above 501 nM; in test [2], not below 100000 nM.
